Patent US8703811B2, “Small molecule inhibitors of Plasmodium falciparum dihydroorotate dehydrogenase” (Genzyme Corporation, priority 2008, dated 2014)

Assays:
[1] = system: Normal Human Dermal Fibroblasts; assay: Normal Human Dermal Fibroblast Toxicity Screen; assay type: cell-based
Procedure, shortened: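 Fibroblasts seeded at 0.25 to 0.3×10^5 cells/mL, allowed 24 h at 37° C./5% CO2, then exposed to compounds for 96 hours. Viability read as Alamar Blue fluorescence after 3 h, with a T=0 plate, Tween 20 as positive control and DMSO as negative control.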

[2] = molecular target: Cytochrome P450 2C19 (Homo sapiens (Human), UniProt P33261); assay: Cytochrome P450 inhibition, 2C19; assay type: in vitro ADME
Chain of Cytochrome P450 2C19 (P33261 whole entry): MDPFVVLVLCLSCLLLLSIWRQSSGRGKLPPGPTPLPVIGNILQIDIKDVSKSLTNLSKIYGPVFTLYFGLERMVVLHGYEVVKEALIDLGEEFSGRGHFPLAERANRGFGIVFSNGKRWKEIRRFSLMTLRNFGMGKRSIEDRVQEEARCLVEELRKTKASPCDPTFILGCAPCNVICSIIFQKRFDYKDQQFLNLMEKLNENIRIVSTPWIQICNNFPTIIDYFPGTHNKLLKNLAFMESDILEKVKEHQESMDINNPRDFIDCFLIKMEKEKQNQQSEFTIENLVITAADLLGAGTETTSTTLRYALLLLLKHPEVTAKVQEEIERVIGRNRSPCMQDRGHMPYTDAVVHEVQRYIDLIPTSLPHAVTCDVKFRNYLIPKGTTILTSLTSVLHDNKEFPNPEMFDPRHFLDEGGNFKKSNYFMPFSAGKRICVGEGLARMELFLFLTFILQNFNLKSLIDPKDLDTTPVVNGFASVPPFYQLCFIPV
From the text: (§1) Rapid screening for cytochrome P450 inhibitors is part of the current paradigm for avoiding development of drugs likely to give clinical pharmacokinetic drug-drug interactions and associated toxicities. There are commercially available assays for such screenings. For example, BD Biosciences (http://www.bdbiosciences.com/index.shtml) provides a technical bulletin describing a detailed, step-by-step procedure for the performance of the high throughput cytochrome P450 inhibition testing method.

[3] = molecular target: Cytochrome P450 2C9 (Homo sapiens (Human), UniProt P11712); assay: Cytochrome P450 inhibition, 2C9; assay type: in vitro ADME
Chain of Cytochrome P450 2C9 (P11712 whole entry): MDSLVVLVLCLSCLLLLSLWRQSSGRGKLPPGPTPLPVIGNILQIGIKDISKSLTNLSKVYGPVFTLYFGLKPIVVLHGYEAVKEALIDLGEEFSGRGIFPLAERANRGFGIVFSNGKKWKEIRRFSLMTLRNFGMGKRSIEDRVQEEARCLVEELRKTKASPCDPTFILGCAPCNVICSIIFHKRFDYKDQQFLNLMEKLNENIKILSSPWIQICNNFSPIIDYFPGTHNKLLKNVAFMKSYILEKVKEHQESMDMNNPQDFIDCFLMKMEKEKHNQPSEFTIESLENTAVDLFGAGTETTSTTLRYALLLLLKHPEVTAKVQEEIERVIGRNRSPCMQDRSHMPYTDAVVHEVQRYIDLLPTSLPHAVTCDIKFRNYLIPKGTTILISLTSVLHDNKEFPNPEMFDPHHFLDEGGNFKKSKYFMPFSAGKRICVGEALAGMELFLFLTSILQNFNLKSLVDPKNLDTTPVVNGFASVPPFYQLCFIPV
From the text: as §1

[4] = molecular target: Cytochrome P450 2D6 (Homo sapiens (Human), UniProt P10635); assay: Cytochrome P450 inhibition, 2D6; assay type: in vitro ADME
Chain of Cytochrome P450 2D6 (P10635 whole entry): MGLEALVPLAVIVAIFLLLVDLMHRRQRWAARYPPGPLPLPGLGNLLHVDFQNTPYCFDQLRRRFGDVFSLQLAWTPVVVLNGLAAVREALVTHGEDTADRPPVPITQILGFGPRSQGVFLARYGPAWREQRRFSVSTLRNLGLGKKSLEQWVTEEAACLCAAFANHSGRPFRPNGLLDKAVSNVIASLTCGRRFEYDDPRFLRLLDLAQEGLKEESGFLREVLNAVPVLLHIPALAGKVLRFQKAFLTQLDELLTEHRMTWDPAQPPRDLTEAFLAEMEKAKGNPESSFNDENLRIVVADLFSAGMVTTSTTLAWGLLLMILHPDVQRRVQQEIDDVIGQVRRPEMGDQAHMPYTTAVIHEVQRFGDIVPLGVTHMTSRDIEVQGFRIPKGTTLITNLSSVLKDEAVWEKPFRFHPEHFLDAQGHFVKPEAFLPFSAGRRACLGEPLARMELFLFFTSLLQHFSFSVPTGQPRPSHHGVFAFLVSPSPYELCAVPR
From the text: as §1

[5] = molecular target: Cytochrome P450 3A4 (Homo sapiens (Human), UniProt P08684); assay: Cytochrome P450 inhibition, 3A4; assay type: in vitro ADME
Chain of Cytochrome P450 3A4 (P08684 whole entry): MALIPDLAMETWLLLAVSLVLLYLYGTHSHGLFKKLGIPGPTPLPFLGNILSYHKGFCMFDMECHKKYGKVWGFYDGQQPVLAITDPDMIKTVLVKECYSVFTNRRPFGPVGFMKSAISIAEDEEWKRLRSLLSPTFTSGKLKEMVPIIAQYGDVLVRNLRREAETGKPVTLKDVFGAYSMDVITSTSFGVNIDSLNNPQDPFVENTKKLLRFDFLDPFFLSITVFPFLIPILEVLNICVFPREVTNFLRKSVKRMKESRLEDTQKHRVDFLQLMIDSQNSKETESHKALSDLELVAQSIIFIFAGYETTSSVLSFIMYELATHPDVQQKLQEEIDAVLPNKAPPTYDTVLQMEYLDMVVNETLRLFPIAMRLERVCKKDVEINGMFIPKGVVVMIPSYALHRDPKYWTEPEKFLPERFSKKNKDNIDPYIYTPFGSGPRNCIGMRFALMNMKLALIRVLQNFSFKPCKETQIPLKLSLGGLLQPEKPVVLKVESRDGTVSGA
From the text: as §1

[6] = molecular target: pbDHODH (Plasmodium berghei, UniProt A0A509AEH5); assay: DCIP assay, pbDHODH; assay type: biochemical, P. berghei; settings: 200 μM L-DHO, 18 μM CoQD, 100 μM DCIP, 20 nM enzyme
Chain of pbDHODH (A0A509AEH5 1-517): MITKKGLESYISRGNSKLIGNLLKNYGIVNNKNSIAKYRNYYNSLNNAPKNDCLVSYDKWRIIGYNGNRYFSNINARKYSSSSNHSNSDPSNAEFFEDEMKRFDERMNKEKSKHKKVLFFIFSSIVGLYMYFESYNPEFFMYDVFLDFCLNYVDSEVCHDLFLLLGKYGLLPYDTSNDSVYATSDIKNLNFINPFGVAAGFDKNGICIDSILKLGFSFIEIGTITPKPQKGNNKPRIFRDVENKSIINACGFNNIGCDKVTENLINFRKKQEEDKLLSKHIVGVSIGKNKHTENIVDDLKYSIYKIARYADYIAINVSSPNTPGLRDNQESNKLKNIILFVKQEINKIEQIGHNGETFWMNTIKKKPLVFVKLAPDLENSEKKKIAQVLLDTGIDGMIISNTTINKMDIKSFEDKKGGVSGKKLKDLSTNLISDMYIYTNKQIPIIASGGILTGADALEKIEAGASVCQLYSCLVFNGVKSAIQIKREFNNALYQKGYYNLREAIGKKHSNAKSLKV
From the text: (§2) Type 2 DHODH activity was monitored with either the direct assay measuring the formation of orotate or via a chromogen reduction assay using DCIP. Although the extinction coefficient and absorption wavelength are preferable for the chromogen reduction assay, the inorganic electron acceptor DCIP can be utilized by DHODH as the final electron acceptor in lieu of CoQn when the endogenous substrate is at a low concentration. As such, the direct assay was used to measure the binding affinity of pfDHODH to CoQD and L-DHO. The enzymatic reaction was performed by varying the L-DHO concentration (1-400 μM) or CoQD concentration (1-200 μM) while keeping the other substrate constant and in excess. The formation of orotate was measured continuously at 296 nm (ε296=4.3 mM^−1 cm^−1). Inhibition of DHODH by small molecules was evaluated using the chromogen based assay with a final substrate concentration of 200 μM L-DHO, 18 μM CoQD, and 100 μM DCIP, unless otherwise noted. The reduction of DCIP was monitored at 600 nm (ε600=18.8 mM^−1 cm^−1).
(§3) Substrate specificity and enzyme inhibition data was analyzed with GraphPad Prism Version 4 for Windows (GraphPad Software). Kinetic constants were calculated by non-linear regression fitting of the data to the Michaelis-Menten equation [36]. IC50 values were determined by non-linear regression fitting of the data to Equation 1: […]

[7] = molecular target: pvDHODH (Plasmodium vivax, UniProt A5K1N1); assay: DCIP assay, pvDHODH; assay type: biochemical, P. vivax; settings: 200 μM L-DHO, 18 μM CoQD, 100 μM DCIP, 20 nM enzyme
Chain of pvDHODH (A5K1N1 1-572): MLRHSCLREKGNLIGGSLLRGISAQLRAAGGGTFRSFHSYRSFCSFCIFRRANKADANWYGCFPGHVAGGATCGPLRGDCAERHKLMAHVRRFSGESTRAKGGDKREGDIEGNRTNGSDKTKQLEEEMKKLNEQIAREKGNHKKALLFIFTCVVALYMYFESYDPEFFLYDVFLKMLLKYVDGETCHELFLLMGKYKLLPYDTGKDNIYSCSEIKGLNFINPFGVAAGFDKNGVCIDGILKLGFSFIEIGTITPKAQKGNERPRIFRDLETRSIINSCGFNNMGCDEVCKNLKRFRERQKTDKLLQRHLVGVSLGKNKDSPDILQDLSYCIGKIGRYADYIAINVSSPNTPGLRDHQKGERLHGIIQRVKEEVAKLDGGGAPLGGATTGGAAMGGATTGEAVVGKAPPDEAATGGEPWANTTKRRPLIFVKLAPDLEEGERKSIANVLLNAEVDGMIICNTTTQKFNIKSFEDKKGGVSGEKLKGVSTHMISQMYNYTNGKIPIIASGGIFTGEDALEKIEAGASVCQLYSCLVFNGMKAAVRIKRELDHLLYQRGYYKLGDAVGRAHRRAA
From the text: as §2, §3

[8] = molecular target: scDHODH (Saccharomyces cerevisiae (strain ATCC 204508 / S288c) (Baker's yeast), UniProt P28272); assay: DCIP assay with fumarate, scDHODH; assay type: biochemical; settings: 115 μM fumarate in lieu of CoQD
Chain of scDHODH (P28272 whole entry): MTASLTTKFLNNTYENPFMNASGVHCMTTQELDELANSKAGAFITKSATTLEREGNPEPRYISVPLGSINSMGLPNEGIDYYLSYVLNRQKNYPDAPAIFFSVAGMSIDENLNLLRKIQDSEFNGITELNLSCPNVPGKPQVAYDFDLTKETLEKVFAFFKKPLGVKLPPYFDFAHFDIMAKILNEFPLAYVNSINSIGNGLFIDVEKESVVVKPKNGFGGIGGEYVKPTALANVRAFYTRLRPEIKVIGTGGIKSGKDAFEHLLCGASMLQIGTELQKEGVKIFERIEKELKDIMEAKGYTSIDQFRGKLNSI

[9] = system: P. falciparum HB3; assay: Inhibition of in vitro P. falciparum culture, [3H]-hypoxanthine uptake, HB3; assay type: cell-based; settings: Plasmodium falciparum, HB3, Erythrocyte; [3H]-hypoxanthine uptake by parasite infected erythrocytes; read-out: HB3 IC50
Protocol: (§4) P. falciparum strains D10, 3D7, HB3, and Dd2 were obtained from the Malaria Research and Reference Reagent Resource Center (Manassas, Va.). The parasite strains were maintained in vitro by method of Trager and Jensen. The inhibition of P. falciparum growth in the presence of drug was assessed by the relative reduction of [^3H]-hypoxanthine uptake as previously described. Inhibition data were fitted to Equation 1 using non-linear regression analysis except that the relative velocity of parasite growth was substituted for the rate of product formation.

[10] = system: P. falciparum D10; assay: Inhibition of in vitro P. falciparum culture, [3H]-hypoxanthine uptake, D10; assay type: cell-based; settings: Plasmodium falciparum, D10, Erythrocyte; [3H]-hypoxanthine uptake by parasite infected erythrocytes; read-out: D10 IC50
Protocol: as §4

[11] = system: P. falciparum D10-scDHODH; assay: Inhibition of transgenic D10-scDHODH parasites, [3H]-hypoxanthine uptake; assay type: cell-based
Protocol: as §4
Transgenic parasites expressing scDHODH were generated as described by Painter et al. except that full length scDHODH was cloned directly into the pGem3Z vector without a GFP tag. The resultant plasmid was transfected into ring stages of P. falciparum D10 by electroporation and maintained in culture using standard methods under the selection of WR99210.

[12] = molecular target: pfDHODH (Plasmodium falciparum (isolate 3D7), UniProt Q08210); assay: pfDHODH activity with FeCy as electron acceptor; settings: read-out: % Inhibition of Product Formation Rate with 50 μM Inhibitor, FeCy
Chain of pfDHODH (Q08210 159-565 limits assumed): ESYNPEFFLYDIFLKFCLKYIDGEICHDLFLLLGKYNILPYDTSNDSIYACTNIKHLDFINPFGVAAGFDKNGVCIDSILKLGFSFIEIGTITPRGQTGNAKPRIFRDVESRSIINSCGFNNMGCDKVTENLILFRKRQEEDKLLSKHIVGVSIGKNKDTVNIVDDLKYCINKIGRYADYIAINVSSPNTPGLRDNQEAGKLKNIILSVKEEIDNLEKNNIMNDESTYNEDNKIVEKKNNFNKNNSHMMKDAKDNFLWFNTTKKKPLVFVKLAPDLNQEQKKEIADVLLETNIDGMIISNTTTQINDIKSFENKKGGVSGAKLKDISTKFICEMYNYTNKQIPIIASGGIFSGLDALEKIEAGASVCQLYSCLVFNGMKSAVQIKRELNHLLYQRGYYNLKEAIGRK
Protocol: Inhibitors of DHODH, as classified by the chromogen reduction assay, were also evaluated for activity using FeCy as an electron acceptor. A final concentration of 5-50 nM DHODH, 200 μM L-DHO and 100 μM FeCy in Buffer C was used in this assay. Both the reduction of FeCy and the formation of orotate was monitored at 420 nm (ε420=1 mM^−1 cm^−1) and 290 nm (ε280=2 mM^−1 cm^−1), respectively, noting that two molecules of FeCy are reduced for one molecule of L-DHO. As with the previous assays, the reaction was performed at 25° C. and initiated with the addition of enzyme.

**Q.** How did the CC50 ([1]; four days exposure, Alamar Blue, read-out: Dermal Fibroblast LC50) turn out when “5-(1H-indol-1-yl)-N-propylthiophene-2-carboxamide [Compound 7]” was run?
**A.** 50000 nM

**Q.** `CCCNC(=O)c1ccc(-n2c(C)nc3ccccc32)s1` [Compound 12, 5-(2-methyl-1H-benzo[d]imidazol-1-yl)-N-propylthiophene-2-carboxamide] was tested. Which “cytotoxicity in dermal fibroblasts” value [1] did it give?
**A.** No adverse cytotoxicity

**Q.** What about the “Cytochrome P450 Inhibition, 2C19” value [2] of the same molecule?
**A.** >5.0 in 2C19 μM

**Q.** What about the “Cytochrome P450 Inhibition, 2C9” value [3] of the same molecule?
**A.** >5.0 in 2C9 μM

**Q.** What about the “Cytochrome P450 Inhibition, 2D6” value [4] of the same molecule?
**A.** >5.0 in 2D6 μM

**Q.** And the “Cytochrome P450 Inhibition, 3A4” value [5]?
**A.** >5.0 in 3A4 μM

**Q.** How did the “Cytochrome P450 Inhibition, 2C19” value [2] turn out when `CCCNC(=O)c1ccc(-n2cnc3ccccc32)s1` [Compound 11, 5-(1H-benzo[d]imidazol-1-yl)-N-propylthiophene-2-carboxamide] was run?
**A.** >5.0 in 2C19 μM

**Q.** And the “Cytochrome P450 Inhibition, 2C9” value [3]?
**A.** >5.0 in 2C9 μM

**Q.** What about the “Cytochrome P450 Inhibition, 2D6” value [4] of the same molecule?
**A.** >5.0 in 2D6 μM

**Q.** What about the “Cytochrome P450 Inhibition, 3A4” value [5] of the same molecule?
**A.** >5.0 in 3A4 μM

**Q.** How did the IC50 [6] turn out when `CCCNC(=O)c1ccc(-n2c(C)cc3ccccc32)s1` [Compound 1, 5-(2-methyl-1H-indol-1-yl)-N-propylthiophene-2-carboxamide] was run?
**A.** 60 ± 7 nM

**Q.** And the IC50 [7]?
**A.** 420 ± 20 nM

**Q.** What about the IC50 [8] of the same molecule?
**A.** > 10000 nM

**Q.** And the IC50 [9]?
**A.** 470 nM

**Q.** What about the IC50 [10] of the same molecule?
**A.** 610 nM

**Q.** What about the IC50 ([11]; Plasmodium falciparum, D10, read-out: D10-scDHODH IC50) of the same molecule?
**A.** > 10000 nM

**Q.** And the “efficacy against D10-scDHODH strain compared to D10 parent strain” value ([11]; dose-effect curves, FIG. 5)?
**A.** significantly reduced

**Q.** What about the inhibition at 50 µM [12] of the same molecule?
**A.** 31%
